Measured values taken from patent publication EP4741379A1, “CLASS OF PROGRAMMED CELL DEATH INHIBITORS, PREPARATION METHOD THEREFOR AND USE THEREOF” (SHANGHAI INSTITUTE OF ORGANIC CHEMISTRY, CHINESE ACADEMY OF …, priority 2023, dated 2025).
Read-outs that look alike come from different tables or passages of the source.

Columns and labels:
[1] = test system: FADD-deficient Jurkat cells; test: TNF-induced programmed necrosis of FADD-deficient Jurkat cells (Cell Titer-Glo viability); format: cell-based, human; conditions: for EC50: Homo sapiens, Jurkat
Procedure: (§1) The biological test protocol is adopted to test effects of the compound on TNF-induced programmed necrosis of FADD (Fas-associated death domain)-deficient Jurkat cells and L929 cells.
(§2) Two different stimulation methods were used: treating with tumor necrosis factor (TNFα) alone, or treating with TNFα in combination of mitochondrial-derived cysteine-aspartate activator (SMAC) SM164. Cell viability was determined by measuring chemiluminescence values, thereby assessing the bioactivity of the compounds in inhibiting programmed cell necrosis.
(§3) Method: FADD-deficient Jurkat cells: FADD-deficient Jurkat cells (human peripheral blood leukemia T cell line) were cultured in vitro. After reaching logarithmic growth phase, cells were collected and centrifuged at 1000 rpm for 5 minutes. A supernatant was discarded. A cell concentration was adjusted to 2.5×10^5/mL, and cells were seeded into a 384-well plate at 40 µL per well. In the corresponding wells, 5 µL of SM164 (50 nM) and compounds diluted with cell culture medium were added. After pre-treatment at 37°C for 1 hour, 5 µL of TNFα (50 ng/mL) diluted with cell culture medium was added to each well as a stimulation group, while 5 µL of culture medium was added as a control group. After the plate was incubated in a cell culture incubator (37°C, 5% CO2) for 14 hours, 15 µL of Cell Titer-Glo solution was added to each well. Then, the plate was incubated at room temperature for 30 minutes. Luminescence was measured to assess intracellular ATP levels. Cell viability was set at 100% for unstimulated DMSO control wells. […] The plate was placed in a cell culture incubator (37°C, 5% CO2) and cultured for 12 hours. In the corresponding wells, 5 µL of SM164 (500 nM) and compounds diluted with cell culture medium were added. After pre-treatment at 37°C for 1 hour, 5 µL of TNFα (500 ng/mL) diluted with cell culture medium was added to the wells as a stimulation group, while 5 µL of culture medium was added as a control group. After the plate was incubated in the cell incubator (37°C, 5% CO2) for 14 hours, 15 µL of Cell Titer-Glo solution was added to each well. Then, the plate was incubated at room temperature for 30 minutes, and luminescence was measured to assess intracellular ATP levels. Cell viability was set at 100% for unstimulated DMSO control wells. EC50 values of the compounds were calculated using Prism GraphPad statistical software.

L929 cells = test: TNF-induced programmed necrosis of L929 cells (Cell Titer-Glo viability); format: cell-based, mouse; conditions: Mus musculus, L929
Procedure: as §1, §2, §3

RIPK1 (1-330) protein = biological target: T1, RIPK1 (1-330) protein (Homo sapiens, UniProt Q13546); test: RIPK1 kinase activity (ADP-Glo); format: biochemical; conditions: RIPK1 (1-330) 2 µM, 37°C, 2 hours; read-out: effective half-maximal inhibitory concentration
T1 construct: test effects of the compound QY-18-26 on kinase activity of RIPK1 (1-330) protein
T1 sequence (Q13546 1-330): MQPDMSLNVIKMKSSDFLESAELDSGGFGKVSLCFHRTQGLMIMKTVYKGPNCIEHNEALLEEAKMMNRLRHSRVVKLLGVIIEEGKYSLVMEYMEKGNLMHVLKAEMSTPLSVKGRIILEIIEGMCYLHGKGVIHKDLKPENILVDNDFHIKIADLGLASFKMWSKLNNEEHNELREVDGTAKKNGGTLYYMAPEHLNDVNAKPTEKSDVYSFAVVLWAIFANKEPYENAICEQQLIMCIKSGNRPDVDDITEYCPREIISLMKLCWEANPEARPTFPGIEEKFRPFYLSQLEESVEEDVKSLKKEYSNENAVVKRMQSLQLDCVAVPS
Procedure: A known clinical RIPK1 inhibitor SAR443122 was used as a control.
Method: Into a 384-well plate, RIPK1 (1-330) protein with a final concentration of 2 µM and ATP with a corresponding concentration (in 1X kinase buffer) with a final concentration of 5 µL were added. At least 3 replicates were set for each group and reacted at 37°C for 2 hours. 5 µL of ADP-Glo reagent was added to stop the kinase reaction and remove any remaining ATP in the reaction system. The plate was incubated at room temperature for 40 minutes, added with 10 µL of Kinase Detection Reagent, which was used to convert ADP to ATP and introduce luciferase and luciferin to detect ATP in the system, and reacted at room temperature for 1 hour. Luminescence was measured using a 7500 Fast Real-Time PCR System. IC50 values of compounds in inhibiting the kinase reaction were calculated using Prism GraphPad statistical software.

[2] = Pharmacokinetic properties in mice; format: in vivo
Procedure: A biological test protocol was adopted to test drug metabolism of the compound in living mice. To verify the pharmacokinetic properties of the compounds of the present disclosure in vivo, the representative compound QY-18-26 was selected. Single administration via oral gavage (PO, 10 mg/kg) or intravenous injection (IV, 1 mg/kg) was used to test the pharmacokinetic properties of the compound in mice (n = 3).

[3] = Brain penetration (brain/plasma drug concentrations) in mice; format: in vivo
Procedure: (§4) A biological test protocol was adopted to test brain/plasma drug concentrations of the compound in living mice and rats. To verify the brain penetration properties of the compounds of the present disclosure in vivo, a representative compound QY-18-26 was selected. Single administration via oral gavage (PO, 10 mg/kg) or intravenous injection (IV, 2 mg/kg) was used to test brain/plasma drug concentrations of the compound in mice (n = 3) at different time points. At the same time, single administration via oral gavage (PO, 5 mg/kg) was used to test brain/plasma drug concentrations in rats (n = 3) at different time points.

[4] = Brain penetration (brain/plasma drug concentrations) in rats; format: in vivo
Procedure: as §4

[5] = test system: TNFα-induced systemic inflammatory response syndrome; test: TNFα-induced systemic inflammatory response syndrome in mice; format: in vivo; conditions: oral gavage 1 mg/kg, 20 minutes before TNFα tail vein injection
Source text: A biological test protocol was adopted as follows: systemic inflammatory response syndrome (SIRS), also known as an inflammatory storm, refers to a nonspecific systemic inflammatory response caused by severe infections, multiple trauma, burns, ischemia-reperfusion, acute pancreatitis, and other infectious or non-infectious injuries. Under this condition, a large number of inflammatory factors are released, and in severe cases, the body loses control over the inflammatory response, leading to multiple organ failure and even death. Tail vein injection of tumor necrosis factor TNFα can induce systemic inflammatory response syndrome in mice, causing a drop in body temperature and death of mice. Effects of the representative compound QY-18-26 on TNFα-induced systemic inflammatory response syndrome were tested by monitoring changes in body temperature and death in mice. A known RIPK1 inhibitor Nec-1s was used as a control.
Method: The compound to be tested was dissolved in 0.5% carboxymethyl cellulose at the required concentration one day in advance and sonicated overnight. […] Body temperature changes of mice were monitored using an infrared thermometer after injection. Effects of the compound were calculated using Prism GraphPad statistical software.

[6] = single dose, PO 10 mg/kg or IV 1 mg/kg

With C[C@H](NC(=O)c1nnn(C)c1Cc1ccccc1)c1ccc(C#Cc2ccccn2)cc1 [QY-18-26, (S)-5-benzyl-1-methyl-N-(1-(4-(pyridin-2-ylethynyl)phenyl)ethyl)-1H-1,2,3-triazole-4-formamide] the EC50 ([1]; stimulation with TNFα + SM164, read-out: EC50 (nM) FADD^-/- Jurkat cells (human-derived) TNFα+ SM164) was less than 0.01 nM, the EC50 ([1]; stimulation with TNFα alone, read-out: EC50 (nM) FADD^-/- Jurkat cells (human-derived) TNFα) was less than 0.01 nM and the “programmed necroptosis inhibitory activity compared to SAR443122” value ([1]; TNFα alone or TNFα + SM164, human derived FADD-deficient Jurkat cells) was “stronger”. It also gave an EC50 (L929 cells; stimulation with TNFα + SM164, read-out: EC50 (nM) L929 cells (mouse-derived) TNFα+ SM164) of less than 0.01 nM, an EC50 (L929 cells; stimulation with TNFα alone, read-out: EC50 (nM) L929 cells (mouse-derived) TNFα) of less than 0.01 nM and an IC50 (RIPK1 (1-330) protein) of 6400 pM. The plasma concentration ([2]; oral gavage 10 mg/kg, for most of the 24-hour period) was greater than 5 ng/mL, the “bioavailability (F)” value [2, 6] was “very high” and the “exposure (AUC)” value [2, 6] was “very high”. For the same compound, the “maximum plasma concentration (Cmax)” value [2, 6] was “very high”, the “time to peak concentration” value [2, 6] was “rapidly reached a peak concentration” and the brain-plasma distribution ([3]; at 4 hours) was “remained stable”. For the same compound, the Kp ([3]; mouse, brain, single dose PO 10 mg/kg or IV 2 mg/kg, read-out: concentration in the brain as share of the concentration in plasma) was roughly 0.4, the brain drug concentration ([3]; single dose PO 10 mg/kg or IV 2 mg/kg) was greater than 5 ng/g and the brain-plasma distribution ([4]; at 4 hours) was “remained stable”. The Kp ([4]; rat, brain, single dose PO 5 mg/kg, read-out: concentration in the brain as share of the concentration in plasma) was roughly 0.4, the brain drug concentration ([4]; single dose PO 5 mg/kg) was greater than 5 ng/g and the “effect on TNFα-induced body temperature drop, inflammatory response, and death” value [5] was “effectively counteract”.
